Laboratory results from PMC9414584, “Synthesis and Biological Evaluation of Indole-2-Carboxamides with Potent Apoptotic Antiproliferative Activity as EGFR/CDK2 Dual Inhibitors” (Pharmaceuticals, 2022).

Experiments:
[1] = system: pancreas cancer cell line (Panc-1); test: Antiproliferative MTT assay, Panc-1; type: cell-based; settings: Homo sapiens; Panc-1, MTT; read-out: Antiproliferative Activity IC50 ± SEM Panc-1
From the text: (§1) Using the MTT assay with doxorubicin as the reference drug, the antiproliferative activities of 5a–k, 6a–c, and 7 against four human cancer cell lines, including pancreas cancer cell line (Panc-1), breast cancer cell line (MCF-7), colon cancer cell line (HT-29), and epithelial cancer cell line (A-549) were investigated.

[2] = system: four human cancer cell lines (Panc-1, MCF-7, HT-29, A-549); test: Antiproliferative MTT assay, average of four cancer cell lines (mean GI50); type: cell-based; settings: for IC50: Homo sapiens, average of A-549, MCF-7, Panc-1, HT-29, read-out: Antiproliferative Activity IC50 Average (GI50 against the four cell lines); for fold less potent than 5e (mean GI50): ratio of mean GI50 vs compound 5e
[3] = system: colon cancer cell line (HT-29); test: Antiproliferative MTT assay, HT-29; type: cell-based; settings: Homo sapiens; HT-29, MTT; read-out: Antiproliferative Activity IC50 ± SEM HT-29
From the text: as §1

[4] = Cell viability assay (MTT) on MCF-10A cells; type: cell-based; settings: human, MCF-10A mammary gland epithelial cells
Description: The MCF-10A (human mammary gland epithelial) cell line was used in the cell viability experiment. Compounds 5a–k, 6a–c, and 7 were incubated with MCF-10A cells for 4 days at 50 µM concentration, and the viability of cells was determined using the 3-(4,5-dimethylthiazol-2-yl)-2,5-diphenyltetrazolium bromide (MTT) test.. All compounds had no cytotoxic effects, and the vitality of the cells was more than 83% for most of the compounds examined.
The MCF-10A (human mammary gland epithelial) cell line was used in the cell viability experiment. Compounds 5a–k, 6a–c, and 7 were incubated with MCF-10A cells for 4 days at 50 µM concentration, and the viability of cells was determined using the 3-(4,5-dimethylthiazol-2-yl)-2,5-diphenyltetrazolium bromide (MTT) test.

[5] = system: breast cancer cell line (MCF-7); test: Antiproliferative MTT assay, MCF-7; type: cell-based; settings: Homo sapiens, MCF7; MCF-7, MTT; read-out: Antiproliferative Activity IC50 ± SEM MCF-7
From the text: as §1

[6] = system: epithelial cancer cell line (A-549); test: Antiproliferative MTT assay, A-549; type: cell-based; settings: Homo sapiens, A549; A-549, MTT; read-out: Antiproliferative Activity IC50 ± SEM A-549
From the text: as §1

CDK2 enzyme = CDK2 enzyme (Homo sapiens, UniProt P24941); test: CDK2 inhibitory assay
[7] = system: Cytochrome C in MCF-7 human breast cancer cell line; test: Cytochrome C assay in MCF-7 cells; type: cell-based
Description: The quantity of cytochrome C within the cell is important for activating caspases and commencing the intrinsic apoptosis process. […] The findings add to the evidence that apoptosis can be attributed to Cytochrome C overexpression and activation of the intrinsic apoptotic pathway triggered by the investigated compounds.
Indole-2-carboxamide derivatives 5d, 5e, and 5h were evaluated as Cytochrome C activators in the MCF-7 human breast cancer cell line.

[8] = system: Caspase-8 in MCF-7 breast cancer cell line; test: Caspase-8 level in MCF-7 cells; type: cell-based, human
EGFR = EGFR (Homo sapiens, UniProt P00533); test: EGFR-TK inhibitory assay; type: biochemical; settings: read-out: EGFR Inhibition IC50 ± SEM
[9] = system: Caspase-3 in MCF-7 breast cancer cell line; test: Caspase-3 level in MCF-7 cells
[10] = system: Caspase-9 in MCF-7 breast cancer cell line; test: Caspase-9 level in MCF-7 cells; type: cell-based, human

Chain of EGFR (P00533 25-1210): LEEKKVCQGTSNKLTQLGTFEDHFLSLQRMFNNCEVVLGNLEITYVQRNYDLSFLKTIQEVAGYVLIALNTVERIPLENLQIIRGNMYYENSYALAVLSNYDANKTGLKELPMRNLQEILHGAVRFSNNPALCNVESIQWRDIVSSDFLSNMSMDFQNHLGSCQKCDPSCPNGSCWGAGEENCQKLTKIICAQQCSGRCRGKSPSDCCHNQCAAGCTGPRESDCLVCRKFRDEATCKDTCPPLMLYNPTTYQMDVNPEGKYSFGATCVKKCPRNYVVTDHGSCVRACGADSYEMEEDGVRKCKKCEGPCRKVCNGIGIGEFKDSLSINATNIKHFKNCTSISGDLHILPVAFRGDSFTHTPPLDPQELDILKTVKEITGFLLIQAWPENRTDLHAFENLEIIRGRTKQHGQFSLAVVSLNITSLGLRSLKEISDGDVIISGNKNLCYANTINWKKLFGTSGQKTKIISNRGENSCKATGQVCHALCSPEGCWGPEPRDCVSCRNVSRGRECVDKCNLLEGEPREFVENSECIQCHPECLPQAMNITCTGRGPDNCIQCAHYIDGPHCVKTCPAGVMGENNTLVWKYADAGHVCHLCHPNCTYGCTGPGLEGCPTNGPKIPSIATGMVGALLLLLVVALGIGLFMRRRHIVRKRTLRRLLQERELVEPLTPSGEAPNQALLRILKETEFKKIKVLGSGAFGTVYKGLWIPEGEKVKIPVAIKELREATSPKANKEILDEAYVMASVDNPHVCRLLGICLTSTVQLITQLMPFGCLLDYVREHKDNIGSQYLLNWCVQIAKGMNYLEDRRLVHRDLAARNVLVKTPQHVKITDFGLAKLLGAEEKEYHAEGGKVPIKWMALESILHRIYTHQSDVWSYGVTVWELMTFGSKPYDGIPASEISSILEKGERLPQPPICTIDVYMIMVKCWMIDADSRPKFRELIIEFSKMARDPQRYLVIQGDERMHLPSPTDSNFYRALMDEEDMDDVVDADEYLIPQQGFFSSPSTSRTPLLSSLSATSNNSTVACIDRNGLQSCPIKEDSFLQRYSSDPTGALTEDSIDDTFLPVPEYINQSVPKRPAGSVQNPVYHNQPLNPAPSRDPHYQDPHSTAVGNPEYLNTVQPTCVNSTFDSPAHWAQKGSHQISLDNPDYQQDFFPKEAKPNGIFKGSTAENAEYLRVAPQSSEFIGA

Row | IC50 [1] [µM] | IC50 [2] [µM] | IC50 [3] [µM] | IC50 [5] [µM] | melting point [°C] | IC50 [6] [µM] | IC50 (CDK2 enzyme) [µM] | IC50 (EGFR) [µM] | SMILES | viability at 4 days, 50 µM [4] [%] | other results
1 | 2.1 ± 0.2 | 1.95 | 2.1 ± 0.2 | 1.7 ± 0.2 | 170 to 172 | 1.9 ± 0.2 |  |  | Cc1c(C(=O)NCCc2ccccc2)[nH]c2cc(Cl)ccc12 [Compound 5f, 6-Chloro-3-methyl-N-phenethyl-1H-indole-2-carboxamide] | 90 | times more potent than 5a ([2]; vs compound 5a): 1.9 times
2 | 5.2 ± 0.5 | 5 | 5.1 ± 0.5 | 4.8 ± 0.5 | 218 to 220 | 4.9 ± 0.5 |  |  | Cc1c(C(=O)NCCc2ccc(N3CCCCC3)cc2)[nH]c2cc(Cl)ccc12 [Compound 5g, 6-Chloro-3-methyl-N-(4-(piperidin-1-yl)phenethyl)-1H-indole-2-carboxamide] | 89 | times lower antiproliferative efficacy than 5c ([2]; vs compound 5c): 3 times
3 | 2.8 ± 0.2 | 2.8 | 2.9 ± 0.2 | 2.6 ± 0.2 | 165 to 167 | 2.9 ± 0.3 |  |  | Cc1c(C(=O)N2CCN(c3ccccc3)CC2)[nH]c2ccc(Cl)cc12 [Compound 6a, (5-Chloro-3-methyl-1H-indol-2-yl)(4-phenylpiperazin-1-yl)methanone] | 90 | 
4 | 2.65 ± 0.2 | 2.6 | 2.8 ± 0.2 | 2.3 ± 0.2 | 180 to 182 | 2.5 ± 0.2 |  |  | Cc1c(C(=O)N2CCN(c3ccccc3)CC2)[nH]c2cc(Cl)ccc12 [Compound 6b, (6-Chloro-3-methyl-1H-indol-2-yl)(4-phenylpiperazin-1-yl)methanone] | 91 | 
5 | 2.4 ± 0.2 | 2.3 | 2.5 ± 0.2 | 2.1 ± 0.2 | 171 to 173 | 2.2 ± 0.2 |  |  | Cc1c(C(=O)N2CCN(c3ccccc3)CC2)[nH]c2c(F)cc(F)cc12 [Compound 6c, (5,7-Difluoro-3-methyl-1H-indol-2-yl)(4-phenylpiperazin-1-yl)methanone] | 89 | 
6 | 4.4 ± 0.4 | 4.3 | 4.6 ± 0.4 | 4 ± 0.4 | 203 to 205 | 4.1 ± 0.4 |  |  | Cc1c(C(=O)NCc2ccccc2)[nH]c2ccc(Cl)cc12 [Compound 7, N-Benzyl-5-chloro-3-methyl-1H-indole-2-carboxamide] | 91 | 

Second part, the compound before the results:

Row | SMILES | IC50 [1] [µM] | IC50 [2] [µM] | IC50 [3] [µM] | IC50 [5] [µM] | melting point [°C] | IC50 [6] [µM] | IC50 (CDK2 enzyme) [µM] | IC50 (EGFR) [µM] | viability at 4 days, 50 µM [4] [%] | other results
7 | Cc1c(C(=O)NCCc2ccccc2)[nH]c2ccc(Cl)cc12 [Compound 5a, 5-Chloro-3-methyl-N-phenethyl-1H-indole-2-carboxamide] | 3.9 ± 0.3 | 3.7 | 3.9 ± 0.3 | 3.2 ± 0.3 | 182 to 184 | 3.7 ± 0.3 |  |  | 89 | fold less potent than 5e (mean GI50) [2]: roughly four-fold
8 | Cc1c(C(=O)NCCc2ccc(N(C)C)cc2)[nH]c2ccc(Cl)cc12 [Compound 5b, 5-Chloro-N-(4-(dimethylamino)phenethyl)-3-methyl-1H-indole-2-carboxamide] | 3.5 ± 0.3 | 3.3 | 3.6 ± 0.3 | 2.9 ± 0.3 | 202 to 204 | 3.2 ± 0.3 |  |  | 87 | 
9 | Cc1c(C(=O)NCCc2ccc(N3CCCCC3)cc2)[nH]c2ccc(Cl)cc12 [Compound 5c, 5-Chloro-3-methyl-N-(4-(piperidin-1-yl)phenethyl)-1H-indole-2-carboxamide] | 1.8 ± 0.2 | 1.7 | 1.8 ± 0.2 | 1.4 ± 0.2 | 216 to 218 | 1.7 ± 0.2 |  |  | 87 | fold less potent than 5e (mean GI50) [2]: at least 1.8 fold; fold reduction of mean GI50 potency vs 5d ([2]; ratio of mean GI50 vs compound 5d): ≥ 1.6 fold
10 | Cc1c(C(=O)NCCc2ccc(N3CCCCC3)cc2)[nH]c2c(Cl)cc(Cl)cc12 [Compound 5h, 5,7-Dichloro-3-methyl-N-(4-(piperidin-1-yl)phenethyl)-1H-indole-2-carboxamide] | 1.2 ± 0.1 | 1.1 | 1.2 ± 0.1 | 0.9 ± 0.1 | 178 to 180 | 1 ± 0.1 | 0.011 ± 0.001 | 0.118 ± 0.01 | 87 | Cytochrome C Conc [7]: 0.65 ng/mL; Cytochrome C Fold Change ([7]; vs untreated control cells): 13 fold; Caspase-8 Conc [8]: 1.88 ng/mL; Caspase-8 Fold Change ([8]; vs control cells): 9.50 fold; Caspase-3 Conc [9]: 537.50 ± 5.00 pg/mL; Caspase-3 Fold Change ([9]; vs control untreated cells): 8.20 fold; Caspase-9 Conc [10]: 16.65 ng/mL; Caspase-9 Fold Change ([10]; vs control cells): 17.50 fold
11 | Cc1c(C(=O)NCCc2ccc(N3CCOCC3)cc2)[nH]c2c(Cl)cc(Cl)cc12 [Compound 5i, 5,7-Dichloro-3-methyl-N-(4-morpholinophenethyl)-1H-indole-2-carboxamide] | 1.6 ± 0.2 | 1.5 | 1.65 ± 0.2 | 1.3 ± 0.1 | 185 to 187 | 1.55 ± 0.2 | 0.027 ± 0.003 | 0.137 ± 0.012 | 90 | 
12 | Cc1c(C(=O)NCCc2ccccc2)[nH]c2c(F)cc(F)cc12 [Compound 5j, 5,7-Difluoro-3-methyl-N-phenethyl-1H-indole-2-carboxamide] | 1.3 ± 0.1 | 1.2 | 1.3 ± 0.1 | 1 ± 0.1 | 198 to 200 | 1.2 ± 0.1 | 0.034 ± 0.003 | 0.098 ± 0.008 | 83 | 
13 | Cc1c(C(=O)NCCc2ccc(N3CCCCC3)cc2)[nH]c2c(F)cc(F)cc12 [Compound 5k, 5,7-Difluoro-3-methyl-N-(4-(piperidin-1-yl)phenethyl)-1H-indole-2-carboxamide] | 1.5 ± 0.2 | 1.4 | 1.5 ± 0.2 | 1.2 ± 0.1 | 192 to 194 | 1.4 ± 0.2 | 0.019 | 0.129 ± 0.011 | 87 | 
